ChEMBL document CHEMBL6071165, “Design, synthesis and biological evaluation of plant-derived miliusol derivatives achieve TNBC profound regression in vivo” (Eur J Med Chem, 2024)
The source made the active and inactive calls. The calls are words filed in the database; no cut-off is given here.

What was measured:
BT-549 [1] = test: Downregulation of LDHA expression in human BT-549 cells at 1 uM incubated for 24 hrs by DAPI staining based immunofluorescence analysis; format: functional, cell-based
MDA-MB-231 [2] = test: Inhibition of glycolysis in human MDA-MB-231 cells assessed as reduction in glucose uptake at 0.5 to 2 uM incubated for 24 hrs followed by 2-NBDG staining based flow cytometric analysis; format: functional, cell-based; details: dose 0.5-2 µM
[3] = (§1) Selectivity ratio of IC50 for antiproliferative activity against human MCF-10A cells assessed as inhibition of cell proliferation incubated for 24 hrs by MTT assay to IC50 for antiproliferative activity against human BT-549 cells assessed as inhibition of cell proliferation incubated for 24 hrs by MTT assay; format: toxicity, cell-based; details: MCF-10A cells versus BT-549 cells, read-out: Ratio IC50
[4] = Toxicity in female BALB/c mouse assessed as change in kidney administered subcutaneously measured upto 16 days; format: tissue-based; details: in vivo, sc, 384 h, time < 16 day
BT-549 [5] = test: Downregulation of c-Jun level in human BT-549 cells incubated for 24 hrs by Western blot analysis; format: functional, cell-based; details: dose 0.5-2 µM
MDA-MB-231 [6] = test: Induction of apoptosis in human MDA-MB-231 cells assessed as upregulation of Bax expression at 0.5 to 2 uM incubated for 24 hrs by Western blot analysis; format: functional, cell-based; details: dose 0.5-2 µM
BT-549 [7] = test: Inhibition of cell migration in human BT-549 cells assessed as decrease in MMP-2 level incubated for 24 hrs by Western blot analysis; format: functional, cell-based; details: dose 0.5-2 µM
BT-549 [8] = test: Inhibition of glycolysis in human BT-549 cells assessed as decrease in PKM2 protein level at 0.5 to 2 uM incubated for 24 hrs by Western blot analysis; format: functional, cell-based; details: dose 0.5-2 µM
BT-549 [9] = test: Inhibition of cell migration in human BT-549 cells assessed as decrease in SNAIL level at 1 uM incubated for 24 hrs by DAPI staining based immunofluorescence analysis; format: functional
BT-549 [10] = test: Antiproliferative activity against human BT-549 cells xenografted in female BALB/c mouse model assessed as fold change in inhibition of PKM2 expression at 10 mg/kg administered subcutaneously incubated for 24 hrs by Western blot analysis (reference value: 1.05%); format: functional; details: route sc
MDA-MB-231 [11] = test: Inhibition of cell migration in human MDA-MB-231 cells assessed as increase in E-cadherin level incubated for 24 hrs by Western blot analysis; format: functional, cell-based; details: dose 0.5-2 µM
BT-549 [12] = test: Induction of apoptosis in human BT-549 cells assessed as viable cells at 2 uM incubated for 24 hrs by Annexin V-PI staining based flow cytometric analysis (reference value: 93.0%); format: functional; details: read-out: Activity
MDA-MB-231 [13] = test: Inhibition of glycolysis in human MDA-MB-231 cells assessed as decrease in PKM2 protein level at 0.5 to 2 uM incubated for 24 hrs by Western blot analysis; format: functional, cell-based; details: dose 0.5-2 µM
BT-549 [14] = test: Induction of ER stress in human BT-549 cells assessed as activation of Xbp-1s protein level incubated for 24 hrs by Western blot analysis; format: functional, cell-based; details: dose 0.5-2 µM
MDA-MB-231 [15] = test: Induction of apoptosis in human MDA-MB-231 cells assessed as necrotic cells at 2 uM incubated for 24 hrs by Annexin V-PI staining based flow cytometric analysis (reference value: 1.29%); format: functional
MDA-MB-231 [16] = test: Antiproliferative activity against human MDA-MB-231 cells xenografted in female BALB/c mouse model assessed as fold change in upregulation of BIP protein level at 5 mg/kg administered subcutaneously incubated for 24 hrs by Western blot analysis (reference value: 1.00%); format: functional; details: route sc
[17] = as §1, with “48” for “24”, “MDA-MB-231” for “BT-549”; format: cell-based; details: MCF-10A cells versus MDA-MB-231 cells, read-out: Ratio IC50
BT-549 [18] = test: Induction of ER stress in human BT-549 cells assessed as activation of CHOP protein level incubated for 24 hrs by Western blot analysis; format: functional, cell-based; details: dose 0.5-2 µM
[19] = Toxicity in female BALB/c mouse xenografted with human BT-549 cells assessed as effect on body weight at 5 to 20 mg/kg, sc and measured daily; format: organism-based; details: in vivo, dose 5-20 mg/kg
MDA-MB-231 [20] = test: Induction of apoptosis in human MDA-MB-231 cells assessed as late apoptotic cells at 1 uM incubated for 24 hrs by Annexin V-PI staining based flow cytometric analysis (reference value: 1.83%); format: functional

For `CC(C)=CCC/C(C)=C/[C@H]1OC(=O)CC12C[C@H](OC(=O)Cc1ccc(NC(=O)/C=C/c3ccccc3)cc1)C=CC2=O` (stereo not given in full), the Activity (BT-549 [1]) was “Active”, the inhibition (MDA-MB-231 [2]) was “Active” and the selectivity ratio at 24 h [3] was 57.7. For the same molecule, the Activity [4] was “Non-Toxic”, the Activity (BT-549 [5]) was “Dose-Dependent Effect” and the Activity (MDA-MB-231 [6]) was “Active”. The inhibition (BT-549 [7]) was “Dose-Dependent Effect”, the inhibition (BT-549 [8]) was “Active” and the inhibition (BT-549 [9]) was “Active”. For the same molecule, the “fold change (FC)” value (BT-549 [10]) was 0.76, the inhibition (MDA-MB-231 [11]) was “Dose-Dependent Effect” and the viability at 2 µM (BT-549 [12]) was 34.8%. The inhibition (MDA-MB-231 [13]) was “Active”, the Activity (BT-549 [14]) was “Active” and the Activity (MDA-MB-231 [15]) was 6.53%. The “fold change (FC)” value (MDA-MB-231 [16]) was 2.18, the selectivity ratio at 48 h [17] was 36.4 and the Activity (BT-549 [18]) was “Dose-Dependent Effect”. For the same molecule, the Activity [19] was “Non-Toxic” and the Activity (MDA-MB-231 [20]) was 41.2%.
